From EP0631668B1, “DETERMINATION OF BINDING AFFINITY USING MAGNETICALLY-LABELED BINDING MEMBERS” (ABBOTT LABORATORIES, priority 1992, dated 1993)

Target: T1, streptavidin-coated paramagnetic microparticle (Streptomyces avidinii, UniProt P22629)
T1 construct: purchased Advanced Magnetics, Cambridge, MA
Assay: Magnetically assisted avidin-biotin binding assay (competitive inhibition, balance readout)
Settings: free biotin concentration 125 nanograms/milliliter (80 µl assayed); 12 milligrams at 0 nanograms/milliliter; Figure 6
Description: The following reagents and samples were used in a binding assay:
The magnetically-labeled reagent was a streptavidin-coated paramagnetic microparticle (Advanced Magnetics, Cambridge, MA; average one micron in diameter, with 5x10^8 particles per mg, supplied as a 5 mg/ml suspension).
Incubation was continued at 37° C for an additional 45 minutes. The wells were then emptied and washed with PBS using a wash bottle.
The magnetically-labeled reagent was first combined with the test sample, thereby forming a reaction mixture which was incubated for one hour at 37° C. […] The unbound magnetically-labeled reagent was removed from the reaction mixture by means of magnetic attraction.

T1 sequence (P22629 25-183): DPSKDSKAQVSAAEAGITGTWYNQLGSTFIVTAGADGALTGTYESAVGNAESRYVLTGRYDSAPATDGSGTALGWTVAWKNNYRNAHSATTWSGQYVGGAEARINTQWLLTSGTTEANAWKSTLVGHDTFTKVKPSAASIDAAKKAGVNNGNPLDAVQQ

O=C(O)CCCC[C@@H]1SC[C@@H]2NC(=O)N[C@@H]21 [biotin]
force change detected by the balance means: zero
